From patent publication US20110070357A1, “Apparatus and Methods for Loading a Drug Eluting Medical Device” (Medtronic Vascular, Inc., priority 2009, published 2011) come the findings set out here.

This series can be described thus: solubility of sirolimus in solvents / dispersion media. Type of series: physicochemical. The method, then:
Solution 524 is a homogeneous mixture in which therapeutic substance 112 dissolves within a solvent or a solvent mixture. In one embodiment, solution 524 includes a high-capacity solvent 528 which is an organic solvent that has a high capacity to dissolve therapeutic substance 112. High capacity as utilized herein is defined as an ability to dissolve therapeutic substance 112 at concentrations greater than 500 mg of substance per milliliter of solvent. Examples of high capacity drug dissolving solvents for sirolimus and similar substances include but are not limited to tetrahydrofuran (THF), di-chloromethane (DCM), chloroform, and di-methyl-sulfoxide (DMSO). In addition to the high-capacity solvent, solution 524 may include an excipient 526 in order to assist in drug elution. In one embodiment, excipient 526 may be a surfactant such as but not limited to sorbitan fatty acid esters such as sorbitan monooleate and sorbitan monolaurate, polysorbates such as polysorbate 20, polysorbate 60, and polysorbate 80, cyclodextrins such as 2-hydroxypropyl-beta-cyclodextrin and 2,6-di-O-methyl-beta-cyclodextrin, sodium dodecyl sulfate, octyl glucoside, and low molecular weight poly(ethylene glycol)s. In another embodiment, excipient 526 may be a hydrophilic agent such as but not limited to salts such as sodium chloride and other materials such as urea, citric acid, and ascorbic acid. […]

As to `CO[C@H]1C[C@@H]2CC[C@@H](C)[C@@](O)(O2)C(=O)C(=O)N2CCCC[C@H]2C(=O)O[C@H]([C@H](C)C[C@@H]2CC[C@@H](O)[C@H](OC)C2)CC(=O)[C@H](C)/C=C(\C)[C@@H](O)[C@@H](OC)C(=O)[C@H](C)C[C@H](C)/C=C/C=C/C=C/1C` [sirolimus], the solubility in hexane entry (hexane) is “insoluble in hexane”. For the same molecule, the solubility in water entry (water) is reported as “insoluble in water”.
